# Reference: US10689381B2 (priority 2017, dated 2020)
# Where two headings read alike, the source gives them in different places.
# Assays:
# HCT116 = assay: cells; type: cell-based, human; conditions: for IC50: read-out: IC50 HCT116
# Protocol: (§1) A population of cells (>1×10^6 cells/mL as determined with a hemocytometer) was diluted with Dulbecco's Modified Eagle Medium (DMEM, Gibco) containing 10% fetal bovine serum (FBS, Gibco) to give a final concentration of 30,000 cells/mL. To each well of a 96-well plate (Corning® Costar®) was added 100 μL of the cell media solution with a multichannel pipet.
# (§2) The test compounds were then added to the plate as follows: test compounds were diluted in DMSO to a concentration of 1 mM. 10-Fold serial dilutions in DMSO were next performed on a separate 96-well plate. Fresh culture media (100 μL) was added to each well of cells resulting in 200 μL of medium per well followed by 2 μL of each test agent. Compounds were tested in duplicate (n=2-8 times) at six concentrations between 0-1000 nM or 0-10000 nM. Following the addition of compound, cultures were incubated for an additional 72 hours.
# (§3) The plates were incubated at 37° C. for 5 minutes (L1210) or 15 min (HCT116 and HCT116/VM46).
# L1210 = assay: cells; type: cell-based, mouse
# Protocol: as §1, §2, §3
smiles,measurement,setting,value
CCC1(NC(=O)c2ccc(-c3ccccc3)cc2)CC2CN(CCc3c([nH]c4ccccc34)C(C(=O)OC)(c3cc4c(cc3OC)N(C)C3C(O)(C(=O)OC)C(OC(C)=O)C5(CC)C=CCN6CCC43C65)C2)C1 (stereo not shown) [Compound 42],IC50,HCT116; Table 2,5.4 nM
same,IC50,L1210; Table 2,5.5 nM
CC[C@]1(NC(=O)c2cc(Cl)c(OC)c(Cl)c2)C[C@H]2CN(CCc3c([nH]c4ccccc34)[C@@](C(=O)OC)(c3cc4c(cc3OC)N(C)[C@H]3[C@@](O)(C(=O)OC)[C@H](OC(C)=O)[C@]5(CC)C=CCN6CC[C@]43[C@@H]65)C2)C1 [Compound 96],IC50,HCT116; Table 2,4.2 nM
same,IC50,L1210; Table 2,3.1 nM
CCC1(NC(=O)c2ccc(C)c(OC)c2)CC2CN(CCc3c([nH]c4ccccc34)C(C(=O)OC)(c3cc4c(cc3OC)N(C)C3C(O)(C(=O)OC)C(OC(C)=O)C5(CC)C=CCN6CCC43C65)C2)C1 (stereo not shown) [Compound 98],IC50,HCT116; Table 2,3.3 nM
same,IC50,L1210; Table 2,4.2 nM
CCC1(NS(=O)(=O)c2ccc(OC)cc2)CC2CN(CCc3c([nH]c4ccccc34)C(C(=O)OC)(c3cc4c(cc3OC)N(C)C3C(O)(C(=O)OC)C(OC(C)=O)C5(CC)C=CCN6CCC43C65)C2)C1 (stereo not shown) [Compound 181],IC50,"HCT116; Table 7, C20′ sulfonamides",30 nM
same,IC50,"L1210; Table 7, C20′ sulfonamides",35 nM
CCC1(NC(=O)c2ccc3ccoc3c2)CC2CN(CCc3c([nH]c4ccccc34)C(C(=O)OC)(c3cc4c(cc3OC)N(C)C3C(O)(C(=O)OC)C(OC(C)=O)C5(CC)C=CCN6CCC43C65)C2)C1 (stereo not shown) [Compound 157],IC50,HCT116; Table 6,2.2 nM
same,IC50,L1210; Table 6,3.3 nM
CCSc1ccc(C(=O)NC2(CC)CC3CN(CCc4c([nH]c5ccccc45)C(C(=O)OC)(c4cc5c(cc4OC)N(C)C4C(O)(C(=O)OC)C(OC(C)=O)C6(CC)C=CCN7CCC54C76)C3)C2)cc1 (stereo not shown) [Compound 86],IC50,HCT116; Table 2,6.1 nM
same,IC50,L1210; Table 2,4.9 nM
CC[C@]1(NC(=O)c2ccc(OC(F)(F)F)cc2)C[C@H]2CN(CCc3c([nH]c4ccc(F)cc34)[C@@](C(=O)OC)(c3cc4c(cc3OC)N(C)[C@H]3[C@@](O)(C(=O)OC)[C@H](OC(C)=O)[C@]5(CC)C=CCN6CC[C@]43[C@@H]65)C2)C1 [Compound 188],IC50,"HCT116; Table 8, 10′-F compounds",0.7 nM
same,IC50,"L1210; Table 8, 10′-F compounds",0.6 nM
CCC1(NC(=O)c2cccs2)CC2CN(CCc3c([nH]c4ccccc34)C(C(=O)OC)(c3cc4c(cc3OC)N(C)C3C(O)(C(=O)OC)C(OC(C)=O)C5(CC)C=CCN6CCC43C65)C2)C1 (stereo not shown) [Compound 136],activity relative to 20′ benzamide Compound 24 (better),HCT116,roughly 2 fold
same,IC50,HCT116; Table 5,0.6 nM
same,potency relative to vinblastine (more potent),HCT116; vinblastine-sensitive cell lines,10 fold
same,IC50,L1210; Table 5,0.6 nM
CCC1(NC(=O)c2cccc(SC)c2)CC2CN(CCc3c([nH]c4ccccc34)C(C(=O)OC)(c3cc4c(cc3OC)N(C)C3C(O)(C(=O)OC)C(OC(C)=O)C5(CC)C=CCN6CCC43C65)C2)C1 (stereo not shown) [Compound 85],IC50,HCT116; Table 2,2.3 nM
same,IC50,L1210; Table 2,5.4 nM
CCC1(NC(=O)c2ccc3c(c2)CCN3)CC2CN(CCc3c([nH]c4ccccc34)C(C(=O)OC)(c3cc4c(cc3OC)N(C)C3C(O)(C(=O)OC)C(OC(C)=O)C5(CC)C=CCN6CCC43C65)C2)C1 (stereo not shown) [Compound 177],IC50,HCT116; Table 6,6.7 nM
same,IC50,L1210; Table 6,5.1 nM
CCC1(NC(=O)c2ccc3ncccc3c2)CC2CN(CCc3c([nH]c4ccccc34)C(C(=O)OC)(c3cc4c(cc3OC)N(C)C3C(O)(C(=O)OC)C(OC(C)=O)C5(CC)C=CCN6CCC43C65)C2)C1 (stereo not shown) [Compound 150],IC50,HCT116; Table 6,0.6 nM
same,IC50,L1210; Table 6,0.6 nM
CC[C@]1(NC(=O)c2cccc(F)c2)C[C@H]2CN(CCc3c([nH]c4ccccc34)[C@@](C(=O)OC)(c3cc4c(cc3OC)N(C)[C@H]3[C@@](O)(C(=O)OC)[C@H](OC(C)=O)[C@]5(CC)C=CCN6CC[C@]43[C@@H]65)C2)C1 [Compound 45],IC50,HCT116; Table 2,5.3 nM
same,IC50,L1210; Table 2,5.7 nM
CCC1(NC(=O)c2ccc(C)c(NC(=O)c3ccccc3)c2)CC2CN(CCc3c([nH]c4ccccc34)C(C(=O)OC)(c3cc4c(cc3OC)N(C)C3C(O)(C(=O)OC)C(OC(C)=O)C5(CC)C=CCN6CCC43C65)C2)C1 (stereo not shown) [Compound 107],IC50,HCT116; Table 2,7.6 nM
same,IC50,L1210; Table 2,30 nM
CCC1(NS(=O)(=O)c2ccc(C)cc2)CC2CN(CCc3c([nH]c4ccccc34)C(C(=O)OC)(c3cc4c(cc3OC)N(C)C3C(O)(C(=O)OC)C(OC(C)=O)C5(CC)C=CCN6CCC43C65)C2)C1 (stereo not shown) [Compound 180],IC50,"HCT116; Table 7, C20′ sulfonamides",30 nM
same,IC50,"L1210; Table 7, C20′ sulfonamides",40 nM
CCC1(NS(=O)(=O)c2cccc3c(N(C)C)cccc23)CC2CN(CCc3c([nH]c4ccccc34)C(C(=O)OC)(c3cc4c(cc3OC)N(C)C3C(O)(C(=O)OC)C(OC(C)=O)C5(CC)C=CCN6CCC43C65)C2)C1 (stereo not shown) [Compound 186],IC50,"HCT116; Table 7, C20′ sulfonamides",30 nM
same,IC50,"L1210; Table 7, C20′ sulfonamides",30 nM
CC[C@]1(NC(=O)c2ccccc2F)C[C@H]2CN(CCc3c([nH]c4ccccc34)[C@@](C(=O)OC)(c3cc4c(cc3OC)N(C)[C@H]3[C@@](O)(C(=O)OC)[C@H](OC(C)=O)[C@]5(CC)C=CCN6CC[C@]43[C@@H]65)C2)C1 [Compound 46],IC50,HCT116; Table 2,7.7 nM
same,IC50,L1210; Table 2,8.4 nM
CCC1(NC(=O)c2ccc3ccccc3n2)CC2CN(CCc3c([nH]c4ccccc34)C(C(=O)OC)(c3cc4c(cc3OC)N(C)C3C(O)(C(=O)OC)C(OC(C)=O)C5(CC)C=CCN6CCC43C65)C2)C1 (stereo not shown) [Compound 152],IC50,HCT116; Table 6,40 nM
same,loss in activity when acyl substitution site is ortho to the basic nitrogen,HCT116; quinolyl series,about 100 fold
same,IC50,L1210; Table 6,40 nM
CCC1(NC(=O)c2ccncc2)CC2CN(CCc3c([nH]c4ccccc34)C(C(=O)OC)(c3cc4c(cc3OC)N(C)C3C(O)(C(=O)OC)C(OC(C)=O)C5(CC)C=CCN6CCC43C65)C2)C1 (stereo not shown) [Compound 128],IC50,HCT116; Table 5,0.4 nM
same,IC50,L1210; Table 5,0.4 nM
CC[C@]1(NC(=O)c2ccc(N)cc2)C[C@H]2CN(CCc3c([nH]c4ccccc34)[C@@](C(=O)OC)(c3cc4c(cc3OC)N(C)[C@H]3[C@@](O)(C(=O)OC)[C@H](OC(C)=O)[C@]5(CC)C=CCN6CC[C@]43[C@@H]65)C2)C1 [Compound 57],IC50,HCT116; Table 2,0.4 nM
same,IC50,L1210; Table 2,0.4 nM
CCC1(NS(=O)(=O)c2c(C)cc(C)cc2C)CC2CN(CCc3c([nH]c4ccccc34)C(C(=O)OC)(c3cc4c(cc3OC)N(C)C3C(O)(C(=O)OC)C(OC(C)=O)C5(CC)C=CCN6CCC43C65)C2)C1 (stereo not shown) [Compound 184],IC50,"HCT116; Table 7, C20′ sulfonamides",580 nM
same,IC50,"L1210; Table 7, C20′ sulfonamides",500 nM
CCC1(NC(=O)c2ccc3cc(NC(=O)OC(C)(C)C)ccc3c2)CC2CN(CCc3c([nH]c4ccccc34)C(C(=O)OC)(c3cc4c(cc3OC)N(C)C3C(O)(C(=O)OC)C(OC(C)=O)C5(CC)C=CCN6CCC43C65)C2)C1 (stereo not shown) [Compound 118],IC50,HCT116; Table 4,6.5 nM
same,IC50,L1210; Table 4,5 nM
C=CC(=O)N[C@@]1(CC)C[C@H]2CN(CCc3c([nH]c4ccccc34)[C@@](C(=O)OC)(c3cc4c(cc3OC)N(C)[C@H]3[C@@](O)(C(=O)OC)[C@H](OC(C)=O)[C@]5(CC)C=CCN6CC[C@]43[C@@H]65)C2)C1 [Compound 23],IC50,HCT116; Table 1,6 nM
same,IC50,HCT116; Table 3,6 nM
same,IC50,L1210; Table 1,7 nM
same,IC50,L1210; Table 3,7 nM
CC[C@]1(NC(=O)c2cccc(Cl)c2)C[C@H]2CN(CCc3c([nH]c4ccccc34)[C@@](C(=O)OC)(c3cc4c(cc3OC)N(C)[C@H]3[C@@](O)(C(=O)OC)[C@H](OC(C)=O)[C@]5(CC)C=CCN6CC[C@]43[C@@H]65)C2)C1 [Compound 48],IC50,HCT116; Table 2,2.7 nM
same,IC50,L1210; Table 2,4.2 nM
CC[C@]1(NC(=O)c2ccc3ccsc3c2)C[C@H]2CN(CCc3c([nH]c4ccccc34)[C@@](C(=O)OC)(c3cc4c(cc3OC)N(C)[C@H]3[C@@](O)(C(=O)OC)[C@H](OC(C)=O)[C@]5(CC)C=CCN6CC[C@]43[C@@H]65)C2)C1 [Compound 162],IC50,HCT116; Table 6,2.9 nM
same,IC50,L1210; Table 6,3.1 nM
CC[C@]1(NC(=O)c2cc3ccccc3s2)C[C@H]2CN(CCc3c([nH]c4ccccc34)[C@@](C(=O)OC)(c3cc4c(cc3OC)N(C)[C@H]3[C@@](O)(C(=O)OC)[C@H](OC(C)=O)[C@]5(CC)C=CCN6CC[C@]43[C@@H]65)C2)C1 [Compound 165],IC50,HCT116; Table 6,1.9 nM
same,IC50,L1210; Table 6,3.1 nM
